According to patent US10407398B2, “Inhibitors of Pseudomonas aeruginosa LecB” (priority 2015, dated 2019):

Legend:
LecBPAO1 [1] = molecular target: T1, LecBPAO1 (Pseudomonas aeruginosa, UniProt Q9HYN5); test: biochemical; type: binding
T1 construct: made in house

LecBPA14 [2] = molecular target: T2, LecBPA14 (Pseudomonas aeruginosa, UniProt A0A0H2ZE85); test: biochemical; type: binding, Pseudomonas aeruginosa UCBPP-PA14
Description: The measured intensities were reduced by buffer values and fluorescence polarization was calculated. The data were analyzed using BMG Labtech MARS software and/or with Graphpad Prism and fitted according to the four parameter variable slope model. […] A minimum of three independent measurements of triplicates each was performed for every ligand.

LecBPAO1 [3] = molecular target: T1, LecBPAO1; test: Microcalorimetric assay (ITC) for direct binding; details: LecBPAO1; for N: ITC binding stoichiometry, one site binding model; for ΔH / −TΔS: ITC, 25° C.
Description: (§1) The temperature of the sample cell was 25° C. The titration was performed with a solution of ligands in the same buffer.

LecBPA14 [4] = molecular target: T2, LecBPA14; test: biochemical; type: binding, Pseudomonas aeruginosa UCBPP-PA14; details: LecBPA14; for N: ITC binding stoichiometry, one site binding model
Description: as §1

T2 sequence (A0A0H2ZE85 entry or part of it): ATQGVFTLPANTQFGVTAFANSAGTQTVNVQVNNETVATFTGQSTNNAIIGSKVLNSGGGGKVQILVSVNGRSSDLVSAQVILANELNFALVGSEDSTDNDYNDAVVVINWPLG
T1 sequence (Q9HYN5 entry or part of it): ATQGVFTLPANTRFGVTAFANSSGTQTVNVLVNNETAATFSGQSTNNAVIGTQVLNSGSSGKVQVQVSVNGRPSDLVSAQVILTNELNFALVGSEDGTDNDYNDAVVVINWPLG

| SMILES | IC50 (LecBPAO1 [1]) | IC50 (LecBPA14 [2]) | further results |
| --- | --- | --- | --- |
| CC1O[C@H](CNS(=O)(=O)c2ccsc2)C(O)C(O)[C@@H]1O (stereo partly drawn) | 1.85 ± 0.13 µM | 0.64 ± 0.27 µM |  |
| Cc1ccc(S(=O)(=O)NC[C@H]2OC(C)[C@@H](O)C(O)C2O)s1 (stereo partly drawn) | 3.49 ± 0.21 µM | 0.65 ± 0.35 µM |  |
| CC1O[C@H](CNS(=O)(=O)c2ccc(Br)s2)C(O)C(O)[C@@H]1O (stereo partly drawn) | 3.2 ± 0.37 µM | 0.62 ± 0.39 µM |  |
| CC1O[C@H](CNS(=O)(=O)c2ccco2)C(O)C(O)[C@@H]1O (stereo partly drawn) | 3.48 ± 0.75 µM | 0.48 ± 0.01 µM |  |
| Cc1cc(S(=O)(=O)NC[C@H]2OC(C)[C@@H](O)C(O)C2O)c(C(F)(F)F)o1 (stereo partly drawn) | 3.88 ± 0.7 µM | 0.49 ± 0.11 µM |  |
| CC1O[C@H](CNS(=O)(=O)c2cn(C)cn2)C(O)C(O)[C@@H]1O (stereo partly drawn) | 14.2 ± 3.57 µM | 1.86 ± 0.23 µM |  |
| CC1O[C@H](CNS(=O)(=O)c2ccn(C)n2)C(O)C(O)[C@@H]1O (stereo partly drawn) | 6.79 ± 1.81 µM | 0.7 ± 0.03 µM |  |
| Cc1csc(S(=O)(=O)NC[C@H]2OC(C)[C@@H](O)C(O)C2O)c1 (stereo partly drawn) | 2.51 ± 0.54 µM | 0.31 ± 0.04 µM |  |
| CCc1ccc(S(=O)(=O)NC[C@H]2OC(C)[C@@H](O)C(O)C2O)s1 (stereo partly drawn) | 4.22 ± 1.13 µM | 0.44 ± 0.04 µM |  |
| CC1O[C@H](CNC(=O)c2ccccc2)C(O)C(O)[C@@H]1O (stereo partly drawn) | 8.73 ± 0.6 µM |  |  |
| CC1O[C@H](CNC(=O)c2cc3ccccc3o2)C(O)C(O)[C@@H]1O (stereo partly drawn) | 10.2 ± 0.86 µM | 2.56 ± 0.33 µM |  |
| CC1O[C@H](CNS(=O)(=O)c2cccs2)C(O)C(O)[C@@H]1O (stereo partly drawn) |  |  | N (LecBPAO1 [3]): 0.92 ± 0.05; ΔH (LecBPAO1 [3]): -11.5 ± 0.0956 kcal/mol; −TΔS (LecBPAO1 [3]): 3.2 ± 0.0335 kcal/mol; N (LecBPA14 [4]): 0.87 ± 0.08; ΔG (LecBPA14 [4]; ITC, 25° C.): -8.91 ± 0.0693 kcal/mol; ΔH (LecBPA14 [4]; ITC, 25° C.): -12 ± 0.617 kcal/mol; −TΔS (LecBPA14 [4]; ITC, 25° C.): 3.04 ± 0.645 kcal/mol |
| Cc1cc(S(=O)(=O)NC[C@H]2OC(C)[C@@H](O)C(O)C2O)c(C)s1 (stereo partly drawn) |  |  | N (LecBPAO1 [3]): 0.98 ± 0.03; ΔH (LecBPAO1 [3]): -11.3 ± 0.287 kcal/mol; −TΔS (LecBPAO1 [3]): 3.23 ± 0.33 kcal/mol; N (LecBPA14 [4]): 0.98 ± 0.06; ΔH (LecBPA14 [4]; ITC, 25° C.): -9.66 ± 0.265 kcal/mol; −TΔS (LecBPA14 [4]; ITC, 25° C.): 0.786 ± 0.402 kcal/mol |
| CC1OCC(O)C(O)(CN)[C@@H]1O (stereo partly drawn) [1-deoxy-3(S)—C-(aminomethyl)-L-fucose] | > 600 µM | > 300 µM |  |
| CCC1(O)C(O)COC(C)[C@H]1O (stereo partly drawn) [1-deoxy-3(S)—C-(ethyl)-L-fucose] | 471 ± 104 µM | 41.5 ± 9.94 µM |  |
| CC(C)C(=O)NCC1(O)C(O)COC(C)[C@H]1O (stereo partly drawn) [1-deoxy-3(S)—C-(isobutyrylamidomethyl)-L-fucose] | 348 ± 65 µM | 62.6 ± 12.4 µM |  |
| CC1OCC(O)C(O)(CNS(=O)(=O)C(C)C)[C@@H]1O (stereo partly drawn) [1-deoxy-3(S)—C-(isopropylsulfonamidomethyl)-L-fucose] | > 600 µM | 286 ± 77 µM |  |
| CC1OCC(O)C(C)(O)[C@@H]1O (stereo partly drawn) [1-deoxy-3(S)—C-(methyl)-L-fucose] | 49.6 ± 7.8 µM | 6.54 ± 1.34 µM |  |
| CC1OCC(O)C(O)(C(F)(F)F)[C@@H]1O (stereo partly drawn) [1-deoxy-3(S)—C-(trifluoromethyl)-L-fucose] | > 600 µM | > 300 µM |  |
| CC(=O)NCC[C@@]1(O)C(C)OCC(O)C1O (stereo partly drawn) [1-deoxy-4(R)—C-(ethylacetamide) L-fucose] | 0.52 ± 0.03 µM | 0.18 ± 0.02 µM |  |
